Test results from publication PMC4957748, “Development of Novel Erythromycin Derivatives with Inhibitory Activity against Proliferation of Tumor Cells” (PLoS ONE, 2016).

Assays:
MCF-7 cells [1] = experiment: Annexin V-FITC/PI apoptosis analysis, MCF-7; type: cell-based, human; details: MCF-7, 2.5 μM, 24 h (control 3.28%)
Protocol: (§1) The majority of cells (Hela, 88.44% and MCF-7 89.30%) in the control samples were viable and non-apoptotic. […] In addition, an increase in the Annexin V+PI+ population was also observed which indicates late apoptotic or dead cells.
(§2) Cell apoptosis was determined using AnnexinV-FITC/PI Assay Kit according to the manufacturers’ protocols. Briefly, cells were seeded in 6-well plates at a density of 1.2×10^5 (MCF-7) or 1.5×10^5 (HeLa) per well and incubated for 24 h. Then, cells were treated with 0, 0.5, 1.5 or 2.5 μM 1b for 24h. After washed with PBS twice, cells were re-suspended in 100 μL binding buffer containing 5 μL AnnexinV-FITC and 5 μL PI. Following 10 min of incubation, cells were detected by FACScan flow cytometer.

[2] = system: Bax, Bcl-2, cyt c, Caspase-3 in HeLa cells; experiment: Western blot analysis of apoptotic proteins, HeLa; type: cell-based, human; details: 24 h
Protocol: (§3) Bax and Bcl-2 proteins are two key apoptosis regulators of Bcl-2 family that govern mitochondrial outer membrane permeabilization (MOMP). To investigate the effects of 1b on Bax and Bcl-2 expressions and its association with cell apoptosis and proliferation, HeLa and MCF-7 cells were treated with different concentration of 1b for 24h before western blot analysis (Fig 6). […] Treatment with 1b led to Δψm depolarization, MOMP enhancing and pro-apoptotic proteins release.
(§4) Cytochrome complex (cyt c) and Caspase-3 play important roles in the process of cell apoptosis. In our case, the effects of 1b on the expression of cyt c and Caspase-3 were examined by treatment of HeLa and MCF-7 cells with different concentration of 1b. […] Treatment with 1b promoted the translocation of cyt c from the mitochondria to cytoplasm. In addition, the amount of 17 kDa cleaved Caspase-3 increased, accompanying with the reducing of zymogen.
(§5) Cells were seeded in 75 mL culture flask at a density of 8 ×10^5 (MCF-7) or 1.2×10^6 (HeLa) and incubated for 24 h. Thereafter, cells were treated with 0, 0.5, 1.5 or 2.5 μM 1b for 24h and harvested by trypsin into the EP tubes.
(§6) For total protein extraction, the cell pellets were lysed in RIPA buffer (Beyotime) supplemented with PMSF on ice for 30 min. After centrifuging at 12000 g for 10 min at 4°C, the cell suspension was collected as the whole cell protein. Cytoplasmic proteins and mitochondrial proteins were extracted from cells using Cell Mitochondria Isolation Kit according to the instructions of manufacturer. The protein concentrations were quantified with BCA Protein Assay Kit (Beyotime) and a plate reader according to the manufacturer’s protocols.
(§7) For western blot analysis, equal protein lysates were separated by electrophoresis on 12% SDS-PAGE gels, and transferred onto PVDF membranes. After blocking with 5% non-fat milk in PBS for 2.5 h at room temperature, the membranes were incubated with primary antibody overnight at 4°C: Bax (1:2000), Bcl-2 (1:1000), Caspase-3 (1:500), Cytochrome c (1:500), and β-actin (1:3000). Then, the blots were washed three times for 10 min each in Tris-NaCl and incubated with secondary HRP-conjugated goat anti-mouse or anti-rabbit IgGs (1:6000 or 1:5000) for 2.5 h at 37°C. The interest proteins were visualized using ECL, and β-actin served as the internal control.

MCF-7 cells [3] = experiment: Flow cytometry cell cycle analysis (PI), MCF-7; type: cell-based, human; details: MCF-7, 1b 24 h
Protocol: (§8) To understand the mechanism driving the antiproliferative activity of the prepared compounds, we analyzed using flow cytometry the cell cycles of Hela and MCF-7 treated for 24h with the selected active compound 1b at 0.5, 1.0 and 2.0μM concentrations (Fig 2B). […] The percentage of apoptotic cells depended on the concentration of 1b.
(§9) Cells were dispensed in 25 ml culture bottle at a density of 5 ×10^5 per bottle. After 24 h incubation, they were treated with compound 1b at given concentrations for 24h. The cells were harvested by 0.05% trypsin (Sigma, St. Louis, MO), then collected by centrifugation, washed with PBS, and fixed with 10 ml ice-cold 70% ethanol at 4°C overnight. After washed with PBS, the cells were suspended in 1ml propidium iodide (PI; 50 mg/L; Sigma, St. Louis, MO) solution supplemented with 1 g/L RNase A (Sigma, St. Louis, MO). Finally, the samples were analyzed by FACScan flow cytometer (Becton Dickinson, Franklin, NJ, USA).

[4] = system: Bax, Bcl-2, cyt c, Caspase-3 in MCF-7 cells; experiment: Western blot analysis of apoptotic proteins, MCF-7; type: cell-based, human; details: 24 h
Protocol: as §3, §4, §5, §6, §7

Hela cells [5] = experiment: Flow cytometry cell cycle analysis (PI), Hela; type: cell-based, human; details: 1b 24 h
Protocol: as §8, §9

Hela cells [6] = experiment: Annexin V-FITC/PI apoptosis analysis, Hela; type: cell-based, human; details: 2.5 μM, 24 h (control 4.68%)
Protocol: as §1, §2

Hela cells [7] = experiment: Mitochondrial potential assay (Rhodamine 123), HeLa; type: cell-based, human; details: 24 h
Protocol: Mitochondria play a key role in the process of apoptosis. After treatment with 1b for 24h and stained with Rhodamine 123, the mitochondrial membrane potential (Δψm) changes in HeLa and MCF-7 cells were observed by flow cytometer.
Cells were seeded in 6-well plates at a density of 0.8×10^5 (MCF-7) or 1.0×10^5 (HeLa) per well. After 24 h of incubation, cells were treated with 0, 0.5, 1.5 or 2.5 μM 1b for another 24h. Subsequently, cells were washed with PBS twice, incubated with 1 μg/mL Rhodamine 123 in 1 mL PBS at 37°C for 30 min, and analyzed by FACScan flow cytometer.

[8] = system: oral carcinoma (KB) cells; experiment: MTT antiproliferative assay, KB; type: cell-based, human; details: 24 h of drug exposure, mean±SD of 3 experiments
Protocol: (§10) In vitro antiproliferative activity against three human tumor cell lines, including gastric adenocarcinoma (SGC-7901), oral carcinoma (KB) and fibrosarcoma (HT-1080), was evaluated using the MTT assay with cis-platinum (Cpt) as the positive control.
(§11) The antiproliferative activity of the synthetic compounds was measured by 3-(4, 5- dimethylthiazol-2-yl)-2, 5-diphenyltetrazolium bromide (MTT) assay. Cells were seeded in 96-well plates (Corning, NY, USA) at a density of 8×10^3 per well. After 24 h of incubation, cells were treated with different concentrations (0.1, 0.3, 1, 3 and 10 μg/ml) of the EM-A dimers for the indicated time periods. Afterwards, MTT (Sigma, St. Louis, MO) solution [5.0 mg/ml in phosphate-buffered saline (PBS)] was added (20 μl/well) and incubated for another 4 h at 37°C. The purple formazan crystals were then dissolved in 100 μl dimethyl sulfoxide (DMSO). After 5 min, the plates were read on a plate microreader (TECANSPECTRA, Wetzlar, Germanay) at 490 nm. The IC50 values were obtained using the software of Dose–Effect Analysis with Microcomputers and were defined as concentration of drug causing 50% inhibition in absorbance compared with control cells. Assays were performed in triplicate from three independent experiments.

[9] = system: normal mouse fibroblast cells (L929); experiment: MTT assay, toxicity against normal fibroblasts L929; type: cell-based; details: 24 h of drug exposure
Protocol: as §11

[10] = system: gastric carcinoma (BGC-823) cells; experiment: MTT antiproliferative assay, BGC-823; type: cell-based, human; details: 24 h of drug exposure, mean±SD of 3 experiments
Protocol: (§12) All cell lines were purchased from American Type Culture Collection (ATCC, Manassas, VA, USA). Non-small cell lung carcinoma cells (A549), hepatocellular carcinoma cells (HepG-2) and breast carcinoma cells (MCF-7) were cultured in DMEM medium (Sigma, St. Louis, MO, USA), while gastric carcinoma cells (BGC-823), laryngeal carcinoma cells (Hep2), cervical carcinoma cells (HeLa) were cultured in RPMI-1640 medium (Sigma, St. Louis, MO, USA), which were supplemented with 10% fetal bovine serum (FBS; TBD, Tianjin, China) at 37°C in humidified atmosphere with 5% CO2.
as §11, with “The IC50 values were obtained using the software of Dose–Effect Analysis with Microcomputers and were defined as concentration of drug causing 50% inhibition in absorbance compared with control cells. Assays were performed in triplicate from three independent experiments.” left out

[11] = system: laryngeal carcinoma (Hep2) cells; experiment: MTT antiproliferative assay, Hep2; type: cell-based, human; details: 24 h of drug exposure, mean±SD of 3 experiments
Protocol: as §12
as §11, with “The IC50 values were obtained using the software of Dose–Effect Analysis with Microcomputers and were defined as concentration of drug causing 50% inhibition in absorbance compared with control cells. Assays were performed in triplicate from three independent experiments.” left out

[12] = system: breast carcinoma (MCF-7) cells; experiment: MTT antiproliferative assay, MCF-7; type: cell-based, human; details: 24 h of drug exposure, mean±SD of 3 experiments
Protocol: as §12
as §11, with “The IC50 values were obtained using the software of Dose–Effect Analysis with Microcomputers and were defined as concentration of drug causing 50% inhibition in absorbance compared with control cells. Assays were performed in triplicate from three independent experiments.” left out

[13] = system: hepatocellular carcinoma (HepG-2) cells; experiment: MTT antiproliferative assay, HepG-2; type: cell-based, human; details: 24 h of drug exposure, mean±SD of 3 experiments
Protocol: as §12
as §11, with “The IC50 values were obtained using the software of Dose–Effect Analysis with Microcomputers and were defined as concentration of drug causing 50% inhibition in absorbance compared with control cells. Assays were performed in triplicate from three independent experiments.” left out

[14] = system: fibrosarcoma (HT-1080) cells; experiment: MTT antiproliferative assay, HT-1080; type: cell-based, human; details: 24 h of drug exposure, mean±SD of 3 experiments
Protocol: as §10, §11

[15] = system: cervical carcinoma (HeLa) cells; experiment: MTT antiproliferative assay, HeLa; type: cell-based, human; details: 24 h of drug exposure, mean±SD of 3 experiments
Protocol: as §12
as §11, with “The IC50 values were obtained using the software of Dose–Effect Analysis with Microcomputers and were defined as concentration of drug causing 50% inhibition in absorbance compared with control cells. Assays were performed in triplicate from three independent experiments.” left out

[16] = system: non-small cell lung carcinoma (A549) cells; experiment: MTT antiproliferative assay, A549; type: cell-based, human; details: 24 h of drug exposure, mean±SD of 3 experiments
Protocol: as §12
as §11, with “The IC50 values were obtained using the software of Dose–Effect Analysis with Microcomputers and were defined as concentration of drug causing 50% inhibition in absorbance compared with control cells. Assays were performed in triplicate from three independent experiments.” left out

[17] = system: gastric adenocarcinoma (SGC-7901) cells; experiment: MTT antiproliferative assay, SGC-7901; type: cell-based, human; details: 24 h of drug exposure, mean±SD of 3 experiments
Protocol: as §10, §11

[18] = HeLa, 0.5, 1.5, 2.5 μM, vs control, dose-dependent, P<0.01
[19] = MCF-7, 0.5, 1.5, 2.5 μM, vs control, dose-dependent, P<0.01

## CCC1OC(=O)C(C)C(OC2CC(C)(OC)C(O)C(C)O2)C(C)C(OC2OC(C)CC(N(C)CC=CCN(C)C3CC(C)OC(OC4C(C)C(OC5CC(C)(OC)C(O)C(C)O5)C(C)C(=O)OC(CC)C(C)(O)C(O)C(C)C(=O)C(C)CC4(C)OC)C3O)C2O)C(C)(OC)CC(C)C(=O)C(C)C(O)C1(C)O (centres unmarked) [Compound 1b]
MCF-7 cells [1]
  early apoptotic cell population (lower right): 54.84%
[2]; [18]
  BCL-2 expression: decreased
  Bax expression: significantly increased
[2]; HeLa, 0.5 to 2.5 μM
  amount of 17 kDa cleaved Caspase-3: increased
[2]; HeLa, concentration increased from 0.5 to 2.5 μM
  expression of cyt c in the cytoplasm: increased
MCF-7 cells [3]; highest concentration (control 3.62%)
  percentage of SubG1 peaks: 22.51%
MCF-7 cells [3]; highest concentration (control 61%)
  percentage of G0/G1 peaks: 45%
[4]; [19]
  BCL-2 expression: decreased
  Bax expression: significantly increased
[4]; MCF-7, 0.5 to 2.5 μM
  amount of 17 kDa cleaved Caspase-3: increased
[4]; MCF-7, concentration increased from 0.5 to 2.5 μM
  expression of cyt c in the cytoplasm: increased
Hela cells [5]; highest concentration (control 2.28%)
  percentage of SubG1 peaks: 20.06%
Hela cells [5]; highest concentration (control 55%)
  percentage of G0/G1 peaks: 35%
Hela cells [6]
  early apoptotic cell population (lower right): 30.30%
Hela cells [7]; 0.5 μM
  mitochondrial membrane potential (Rhodamine 123): 74.17%
Hela cells [7]; 2.5 μM
  mitochondrial membrane potential (Rhodamine 123): 1.00%

## N.N.[Cl][Pt][Cl] [Cpt, cis-platinum]
[8]
  IC50: 4.7 ± 0.3 µM
[9]
  IC50: 18.5 µM
[10]
  IC50: 11.8 ± 0.2 µM
[11]
  IC50: 12.3 ± 1.3 µM
[12]
  IC50: 2.9 ± 0.1 µM
[13]
  IC50: 4.7 ± 0.4 µM
[14]
  IC50: 19.7 ± 1.5 µM
[15]
  IC50: 17.4 ± 1.4 µM
[16]
  IC50: 5.8 ± 0.2 µM
[17]
  IC50: 4.9 ± 0.4 µM
